Paper PMC3033228 (Clinical colorectal cancer, 2010)
Where two headings read alike, the source gives them in different places. Values belong to the compound of their own block, whether it stands above or below them.

Key:
[1] = 5-Fluorouracil plasma pharmacokinetics; assay type: in vivo, human; conditions: for 5-Fluorouracil Cl: DL 3 (erlotinib 150 mg), individual values (n = 2)
[2] = population pharmacokinetic analysis; cited from earlier work
[3] = human, in vivo
[4] = system: patients; conditions: cited from earlier work
[5] = system: patients with advanced colorectal cancer; test: Phase I toxicity assessment; conditions: with FOLFOX4 with or without bevacizumab, oral, advanced CRC
[6] = system: CRC; conditions: cited from earlier work
[7] = clinical; conditions: human, in vivo; for Cmax: Erlotinib Cmax

- 5-Fluorouracil Cl ([1]; column Combination): 313.2 L/h
- 5-Fluorouracil Cl ([1]; column Single Agent): 217.4 L/h
- 5-Fluorouracil systemic clearance, effect of co-administration of erlotinib ([1]; P = .97): not markedly affected
Structure (SMILES): O=c1[nH]cc(F)c(=O)[nH]1 [5-Fluorouracil]

- OSI-420 Cmax ([3]; 50 mg): 60.8 ± 16.1 (3) ng/mL
- OSI-420 Tmax ([3]; 50 mg): 2.00 (1.08–2.00, 3) hour
- OSI-420 Cmax ([3]; 100 mg): 67.8 ± 49.1 (8) ng/mL
- OSI-420 Tmax ([3]; 100 mg): 3.00 (1.03–25.03, 8) hour
- OSI-420 Cmax ([3]; 150 mg): 193.2 ± 92.6 (3) ng/mL
- OSI-420 Tmax ([3]; 150 mg): 9.95 (2.07–24.08, 3) hour
Structure (SMILES): C#Cc1cccc(Nc2ncnc3cc(OCCOC)c(OCCO)cc23)c1 [OSI-420]
- OSI-420 exposure as share of erlotinib exposure [2]: approximately 10%

Structure (SMILES): C#Cc1cccc(Nc2ncnc3cc(OCCOC)c(OCCOC)cc23)c1 [erlotinib]
- Dose level at which grade 3 diarrhea occurred [4]: 200 mg
- Patients experiencing diarrhea ([4]; erlotinib 100 mg/day): 25%
- Patients experiencing diarrhea ([4]; erlotinib 150 mg/day): 86%
- Maximum tolerated dose (MTD) of erlotinib [5]: 100 mg daily
- Response rates (RRs) of monotherapy trials [6]: negligible
- Tmax ([7]; 50 mg, Erlotinib Tmax): 1.08 h
- Cmax ([7]; 100 mg): 0.985 ± 0.576 µg/mL
- Cmax ([7]; 150 mg): 1.96 ± 1.16 µg/mL

Structure (SMILES): COc1cc2ncnc(Nc3ccc(F)c(Cl)c3)c2cc1OCCCN1CCOCC1 [gefitinib]
- Response rates (RRs) of monotherapy trials [6]: negligible
